From patent US20260200923A1, “HETEROCYCLIC COMPOUNDS TARGETING THE NUDT5 PROTEIN” (Oxford University Innovation Limited, priority 2022, published 2026)

Experiments:
Assay type in all cases: cell-based
[1] = tested on: patient-derived fibroblast lines with MTHFD1 mutations; test: adenosine toxicity in fibroblasts from MTHFD1 deficiency patients; conditions: patient-derived cells
Procedure: Patient-derived fibroblast and control fibroblast lines were cultured in Minimum Essential Medium alpha media (MEMα, no nucleosides, Gibco), supplemented with 10% FBS and 1% P/S. These patient-derived fibroblast lines were previously characterized in Burda et al. 2015. For the experiments using dialyzed FBS, the dialyzed FBS was purchased from Gibco and added to IMDM at a final concentration of 10%. All the cell lines were incubated in 5% CO2 atmosphere at 37° C.

NUDT5-CRBN interaction = target: T1, NUDT5-CRBN interaction (Homo sapiens, UniProt Q96SW2+Q9UKK9); test: NanoBRET ternary complex formation (protein-protein interaction) assay; conditions: HEK293 cells, 4 h
T1 construct: expressed in transfected cells; host or cells: HEK293
Procedure: For NanoBRET protein-protein interaction assay, NanoBRET Nano-Glo Detection System (N1662, Promega) was used according to the manufacturer's instruction. In brief, 220,000 HEK293 cells/ml was seeded in a 6-well plate. After 6 h, N-terminal nanoLuc NUDT5 and Halo-tag CRBN were then transfected into the cells using Fugene HD transfection reagent (E2312, Promega). The transfected HEK293 (220,000 cells/ml) were then replated onto a 384-well plate containing compounds. After 4 h incubation, NanoLuc substrate was added into each well and the signals were measured by PHERAstar Microplate Reader.
(§1) Compounds were dispensed in the 384-well plates by using Echo Acoustic Dispenser.

MTHFD1^K56R cells = test: growth of MTHFD1^K56R cells in adenosine-containing media; conditions: 72 h
Procedure: (§2) HAP1 (KBM7-derived, Horizon Discovery, C859), and HAP1 MTHFD1^KO, MTHFD1^K56R, and MTHFD1^K386E cell lines were cultured in Iscove's Modified Dulbecco's Medium (IMDM, Sigma), supplemented with 10% Fetal Bovine Serum (FBS, Sigma) and 1% Penicillin/Streptomycin (P/S, Sigma).
(§3) MTHFD1^KO cells in dialyzed FBS media were treated with a single nucleotide or folic acid metabolite for 72 hours. Cells were then stained with Hoechst, imaged, and counted using an Operetta (Perkin Elmer). For the AMPK activator studies, cells were stained with Hoechst, imaged, and counted using an Opera (Perkin Elmer). Similarly, MTHFD1^K56R cells in dialyzed FBS media were treated with adenosine for 72 hours. Cells were then stained with Hoechst, imaged, and counted using an Operetta (Perkin Elmer).

HAP-1 cells = test: 6-thioguanine assay (CellTiter-Glo viability); conditions: 0.2 μg/ml 6-thioguanine, 72 h; HAP1 (and NB4, FIG. 11)
Procedure: NB-4 and HAP1 cells (1000 cells/well in 40 uL) were seeded onto a 384-well plate containing compounds. DMSO or 0.2 μg/ml 6-thioguanine (A4882, Sigma-Aldrich) was added into respective wells. After 72 h incubation cell viability was measured by using CellTiter-Glo 2.0 Assay (G9242, Promega). Compounds in the 384-well plates were prepared by using Echo Acoustic Dispenser.

WT HAP1 cells = test: growth of WT HAP1 cells; conditions: 72 h
Procedure: as §2, §3

NUDT5 [2] = target: T2, NUDT5 (Homo sapiens, UniProt Q9UKK9); test: NUDT5 degradation by Western blot in HEK293 cells; design: endogenous in cells; host or cells: HEK293 (also CRBN knock-out HEK293 for A13)
Procedure: (§4) For Western blots, proteins were separated on polyacrylamide gels with SDS running buffer (50 mM Tris, 380 mM Glycine, 7 mM SDS) and transferred to PVDF membranes. All membranes were then blocked with blocking buffer (5% w/v milk powder, BioRad) in TBST (50 mM Tris (tris(hydroxymethylaminomethane), 150 mM NaCl, 0.05% (v/v) Tween 20, adjusted to pH 7.6) Proteins were probed with antibodies against phospho-AMPK (50081S, 1:2000, Cell Signaling Technologies), AMPK (5832S, 1:2000, Cell Signaling Technologies), PML (ab179466, 1:1000, abeam), PARP8 (NBP213733, 1:1000, Novus Biologicals), ATF2/7 (82870, 1:1000, Cell Signaling Technologies), alpha-Tubulin (ab7291, 1:1000, Abeam), phospho-UBTF (ab182583, 1:1000, abeam), UBTF (HPA006385, 1:1000, Sigma), RBM38 (AV40862, 1:1000, Sigma), or NUDT5 (ab129172, 1:1000, abeam), detected by HRP (horse-radish peroxidase) conjugated donkey anti-rabbit IgG antibody (Pierce) or donkey anti-mouse antibody IgG antibody (Pierce) and visualized with Clarity ECL Western Blotting substrate (BioRad), according to provided protocol.

luciferase-tagged NUDT5 = target: T3, luciferase-tagged NUDT5 (Homo sapiens, UniProt Q9UKK9); test: NanoBRET target engagement assay; conditions: live cells, 2 h
T3 construct: expressed in transfected cells; host or cells: HEK293T
Procedure: For NanoBRET target engagement assay, intracellular TE Nano-Glo substrate/inhibitor (N2161, Promega) was used according to the manufacturer's instruction. In brief, 200,000 HEK293T cells/ml was seeded in a T-75 flask. N-terminal NanoLuciferse NUDT5 was reverse transfected into the cells using Fugene HD transfection reagent (E2312, Promega). After 24 h the transfected HEK293 (200,000 cells/ml) were replated onto a 384-well plate containing compounds. 2.5 nM NU008116a was used as the final tracer concentration. After 2 h, NanoLuc substrate and inhibitor was added into each well and the signals were measured by PHERAstar Microplate Reader.
as §1

NUDT5 [3] = target: T2, NUDT5; test: CRBN knock-out experiment, NUDT5 degradation; design: endogenous in cells; host or cells: HEK293 (also CRBN knock-out HEK293 for A13); conditions: CRBN knock-out HEK293 cells, 20 h
NUDT5 [4] = target: T2, NUDT5; test: NUDT5 degradation by Western blot in HAP-1 cells; design: endogenous in cells
Procedure: as §4

Structure (SMILES): Cn1c(=O)c2c(nc(N3CCN(C(=O)N4CCC(CN5CCN(c6ccc7c(c6)C(=O)N(C6CCC(=O)NC6=O)C7=O)CC5)CC4)CC3)n2Cc2nnc(-c3ccc(Cl)c(Cl)c3)o2)n(C)c1=O (stereo not drawn) [dNUDT5, 7-((5-(3,4-dichlorophenyl)-1,3,4-oxadiazol-2-yl)methyl)-8-(4-(4-((4-(2-(2,6-dioxopiperidin-3-yl)-1,3-dioxoisoindolin-5-yl)piperazin-1-yl)methyl)piperidine-1-carbonyl)piperazin-l-yl)-1,3-dimethyl-3,7-dihydro-1H-purine-2,6-dione]
- effect on adenosine-mediated toxicity [1]: reverses adenosine-mediated toxicity
- ternary complex formation between NUDT5 and CRBN (NUDT5-CRBN interaction): able to induce proficient ternary complex formation
- concentration of maximum rescue of cell viability (MTHFD1^K56R cells; adenosine supplementation): 100 nM
- effect on adenosine toxicity / viability (MTHFD1^K56R cells; adenosine-containing media): prevented adenosine toxicity
- rescue of 6-TG toxicity (HAP-1 cells): able to rescue 6-TG toxicity
- effect on viability of WT cells (WT HAP1 cells): did not affect the viability of WT cells
- NUDT5 degradation at 100 nM, 20 h (%) (NUDT5 [2]; 100 nM, 20 h): 96%
- concentration beyond which degradation efficiency declines (hook effect) (NUDT5 [2]; HEK293 and HAP-1 cells): > 300 nM
- DC50 (NUDT5 [2]; HEK293 cells): 0.5 nM
- dependence of NUDT5 degradation (rescue experiments) (NUDT5 [2]; competition with TH5427, MLN4924, MG132, HEK293 cells): E3 ligase- and proteasome-dependent
- NUDT5 engagement / recruitment (luciferase-tagged NUDT5): engaged their cognate target NUDT5 in live cells
- dependence of degradation on E3 ligase (NUDT5 [3]): E3-ligase-dependant
- DC50 (NUDT5 [4]): 0.3 nM
